Entries after “also recorded” stand apart in the source; their conditions may differ. Where a name gives a salt, the structure may show the parent alone. Read-outs that look alike come from different tables or passages of the source.
How the values were obtained:
[1] = test system: DES fixed cell cytoplasm and nuclei; experiment: Solubilisation of cytoplasm versus nuclei of DES fixed cells; format: cell-based; settings: DMSO at 25% or more final concentration
Source text: (§1) This is important for example if studying the RNA component of the cytoplasm, nuclei or the entire cell contents as a selection of the source of the RNA can be made based on the solvent used.
Such intact nuclei can be sorted, pelleted selected, and their contents analysed either in entire nuclei by using, for example, labeled antibodies specific to nuclear epitopes such as Ki-67 or, by using fluorescent nucleic acid probes for detecting RNA and DNA. Alternatively the purified nuclei can be lysed and their contents including proteins, DNA and RNA released for further analysis such as genomic DNA sequencing, protein-protein interactions, intron splicing, CHIP analysis, chromosome analysis and/or RNA sequencing.

[2] = test system: Trimethylglycine:Trifluoroacetamide fixed mouse liver single-cells; experiment: Lysis of fixed cells by solvents and aqueous solutions; format: cell-based; settings: for Cell lysis effect (4 day treatment): nuclei: whether nuclei are lysed
Source text: as §1

[3] = 500 fixed, dissociated mouse liver cells per well, bromophenol blue stained, 4 day treatment
[4] = organic solvents in the range of 80-100% final concentration

Row | Compound | Cell lysis effect (4 day treatment) [2, 3] | further results
1 | OC(C(F)(F)F)C(F)(F)F [100% 1,1,1,3,3,3-Hexafluoro-2-propanol, 1,1,1,3,3,3-Hexafluoro-2-propanol] | Complete lysis | solubilisation of fixed cell cytoplasm and nuclei [1]: very efficiently solubilises both the cytoplasm and nuclei; Cell lysis effect (4 day treatment) ([2]; 500 fixed, dissociated mouse liver cells per well, bromophenol blue stained, 4 day treatment, listed as 10% 1,1,1,3,3,3-Hexafluoro-2-propanol): No lysis; Cell lysis effect (4 day treatment) ([2]; 500 fixed, dissociated mouse liver cells per well, bromophenol blue stained, 4 day treatment, listed as 50% 1,1,1,3,3,3-Hexafluoro-2-propanol): >40% cell lysis; Cell lysis effect (4 day treatment) ([2]; 500 fixed, dissociated mouse liver cells per well, bromophenol blue stained, 4 day treatment, listed as 90% 1,1,1,3,3,3-Hexafluoro-2-propanol): Complete lysis; lysing of Trimethylglycine:Trifluoroacetamide (1:2 mol:mol) fixed samples [2, 4]: particularly effective at effectuating cell lysis; Cell lysis effect (4 day treatment): nuclei ([2]; 4 day treatment): including nuclei
2 | [I-].[K+] [5M Potassium iodide, Potassium iodide] | >50% cell lysis | Cell lysis effect (4 day treatment) ([2]; 500 fixed, dissociated mouse liver cells per well, bromophenol blue stained, 4 day treatment, listed as 1M Potassium iodide): No lysis; lysing of Trimethylglycine:Trifluoroacetamide (1:2 mol:mol) fixed samples [2, 4]: efficient at lysing
3 | [O-][Cl+3]([O-])([O-])O [5M Sodium perchlorate, Sodium perchlorate] | 100% cell lysis | lysing of Trimethylglycine:Trifluoroacetamide (1:2 mol:mol) fixed samples [2, 4]: efficient at lysing
4 | NP40 [1% NP40] | >50% cell lysis | –
5 | Tetramethyl ammonium oxide [50% Tetramethyl ammonium oxide] | 100% cell lysis | –
6 | CCCC[N+](CCCC)(CCCC)CCCC.[Cl-] [5M Tetrabutyl ammonium chloride, Tetrabutyl ammonium chloride] | – | Cell lysis effect (4 day treatment) [2]: No lysis
7 | [Cl-].[Li+] [1M LiCl, LiCl] | No lysis | –
8 | NC(=O)C(F)(F)F [Saturated Trifluoroacteamide, Trifluoroacteamide] | No lysis | –
9 | NC(N)=O [8M Urea, Urea] | > 95% | Cell lysis effect (4 day treatment): nuclei ([2]; 4 day treatment): not nuclei
10 | CCN(CC)C(=O)C(F)(F)F [N,N-Diethyl-2,2,2-Trifluoroacetamide] | No lysis | –
11 | NC(=O)C(F)(F)C(F)F [Saturated Tetrafluoropropionamide, Tetrafluoropropionamide] | No lysis | –
12 | OCC(O)CO [100% Glycerol, Glycerol] | No lysis | –
13 | C[N+](C)(C)C.[Cl-] [5M Tetramethyl ammonium chloride, Tetramethyl ammonium chloride] | – | Cell lysis effect (4 day treatment) [2]: No lysis
14 | O=CN1CCOCC1 [100% Formyl morpholine, Formyl morpholine] | No lysis | –
15 | N#CS.N=C(N)N [4M Guanidine thiocyanate, Guanidine thiocyanate] | – | Cell lysis effect (4 day treatment) [2]: >50% cell lysis
16 | CCN1CCCC1=O [100% N-ethyl pyrrolidone, N-ethyl pyrrolidone] | No lysis | –
17 | CCn1ccnc1 [100% 1-Ethylimidazole, 1-Ethylimidazole] | No lysis | –
18 | Triton X100 [1% Triton X100] | >60% cell lysis | –
19 | OC(c1ccccc1)(C(F)(F)F)C(F)(F)F [1,1,1,3,3,3-Hexafluoro-2-phenyl-2-propanol] | – | lysing of Trimethylglycine:Trifluoroacetamide (1:2 mol:mol) fixed samples [2, 4]: particularly effective at effectuating cell lysis

Row | Compound | Cell lysis effect (4 day treatment) [2, 3] | further results
20 | Cn1ccnc1 [100% 1-Methylimidazole, 1-Methylimidazole] | No lysis | –
21 | C[C@H](CCC(=O)NCCC[N+](C)(C)CCCS(=O)(=O)[O-])[C@H]1CC[C@H]2[C@@H]3[C@H](O)C[C@@H]4C[C@H](O)CC[C@]4(C)[C@H]3C[C@H](O)[C@]12C [1% CHAPS, CHAPS] | >80% cell lysis | –
22 | IGEPAL-CA630 [50% IGEPAL-CA630] | 100% cell lysis | Cell lysis effect (4 day treatment) ([2]; 500 fixed, dissociated mouse liver cells per well, bromophenol blue stained, 4 day treatment, listed as 10% IGEPAL-CA630): No lysis; Cell lysis effect (4 day treatment) ([2]; 500 fixed, dissociated mouse liver cells per well, bromophenol blue stained, 4 day treatment, listed as 30% IGEPAL-CA630): No lysis
23 | NC(N)=S [Saturated Thiourea, Thiourea] | 100% cell lysis | –
24 | PEG200 [100% PEG200] | No lysis | –
25 | N=C(N)N [5M Guanidine HCl, Guanidine HCl] | >50% cell lysis | –
26 | Oc1ccccc1 [phenol] | – | lysing of Trimethylglycine:Trifluoroacetamide (1:2 mol:mol) fixed samples [2]: particularly effective at effectuating cell lysis
27 | NC=O [100% Formamide, Formamide] | No lysis | –
28 | CCCCCCCCCCCCOS(=O)(=O)[O-].[Na+] [2% SDS, Sodium dodecyl sulphate] | – | Cell lysis effect (4 day treatment) ([2]; 500 fixed, dissociated mouse liver cells per well, bromophenol blue stained, 4 day treatment, listed as 0.1% SDS, sulphate): >15% cell lysis; Cell lysis effect (4 day treatment) ([2]; 500 fixed, dissociated mouse liver cells per well, bromophenol blue stained, 4 day treatment, sulphate): Complete Lysis
29 | 10 mg/ml BSA (acetylated): BSA (acetylated) | No lysis | –
30 | CN(C)C(=O)C(F)(F)F [N,N-Methyl-2,2,2-Trifluoroacetamide] | No lysis | –
31 | CN1CCCC1=O [50% N-methyl pyrrolidone, N-methyl pyrrolidone] | No lysis | –
32 | CC(O)(C(F)(F)F)C(F)(F)F [1,1,1,3,3,3-Hexafluoro-2-methyl-2-propanol] | – | lysing of Trimethylglycine:Trifluoroacetamide (1:2 mol:mol) fixed samples [2, 4]: particularly effective at effectuating cell lysis
33 | OCCS [100% Beta-mercaptoethanol, Beta-mercaptoethanol] | 100% cell lysis | Cell lysis effect (4 day treatment) ([2]; 500 fixed, dissociated mouse liver cells per well, bromophenol blue stained, 4 day treatment, listed as 10% Beta-mercaptoethanol): No lysis; Cell lysis effect (4 day treatment) ([2]; 500 fixed, dissociated mouse liver cells per well, bromophenol blue stained, 4 day treatment, listed as 20% Beta-mercaptoethanol): No lysis; Cell lysis effect (4 day treatment) ([2]; 500 fixed, dissociated mouse liver cells per well, bromophenol blue stained, 4 day treatment, listed as 40% Beta-mercaptoethanol): No lysis; Cell lysis effect (4 day treatment) ([2]; 500 fixed, dissociated mouse liver cells per well, bromophenol blue stained, 4 day treatment, listed as 60% Beta-mercaptoethanol): >50% cell lysis; Cell lysis effect (4 day treatment) ([2]; 500 fixed, dissociated mouse liver cells per well, bromophenol blue stained, 4 day treatment, listed as 80% Beta-mercaptoethanol): >80% cell lysis; lysing of Trimethylglycine:Trifluoroacetamide (1:2 mol:mol) fixed samples [2, 4]: particularly effective at effectuating cell lysis
34 | CC(C)=O [100% Acetone, Acetone] | No lysis | –
35 | C[S+](C)[O-] [100% DMSO, Dimethylsulphoxide] | >70% cell lysis | solubilisation of fixed cell cytoplasm and nuclei [1]: very efficiently solubilises the Trimethylglycine:Trifluoroacetamide fixed cell's cytoplasm but not the nuclei; also recorded: particularly efficient at the solubilization and removal of the cell membrane and cytoplasm but not the nucleus; lysing of Trimethylglycine:Trifluoroacetamide (1:2 mol:mol) fixed samples [2, 4]: particularly effective at effectuating cell lysis
36 | CCO [100% Ethanol, Ethanol] | No lysis | –
37 | Tween-20 [1% Tween-20] | >60% cell lysis | –

Reference: patent US20210231538A1, “DISSOCIATION OF BIOLOGICAL SAMPLES” (priority 2018, published 2021)
